The source of these data is patent US11752125B2, “Anti-neuroinflammatory and protective compounds in Achillea fragrantissima” (THE STATE OF ISRAEL MINISTRY OF AGRICULTURE & RURAL …, priority 2013, dated 2023).

In one assay the test system is ERK 1/2. Description: H2O2-induced ERK 1/2 phosphorylation in astrocytes (ELISA). It is filed as cell-based, rat. Conditions: H2O2 175 μM 40 min; for effect on H2O2-induced phosphorylation of ERK1/2: astrocytes preincubated 2 h. The procedure:
Astrocytes were treated with TTF 2 h before the addition of H2O2. Cells were lysed 40 minutes after the addition of H2O2 in lysis buffer supplied by PathScan sandwich ELISA kit (Cell Signaling TECHNOLOGY) according to the manufacturer's protocol. Protein concentrations in cell lysates were determined by Bradford reagent (Bio-Rad, Hercules, Calif.), and equal amounts of proteins were subjected to ELISA. To measure the amount of total and phosphoSAPK/JNK in cell lysates of astrocytes, ELISA was performed according to the manufacturer's protocol using the PathScan total SAPK/JNK sandwich ELISA kit (Cell Signaling TECHNOLOGY) and the PathScan phospho-SAPK/JNK (Thr183/Tyr185) sandwich ELISA kit (Cell Signaling TECHNOLOGY), respectively. To measure the amount of total and phospho-ERK 1/2 (i.e. phospho-p44/42 MAPK) in cell lysates of astrocytes, ELISA was performed according to the manufacturer's protocol using the PathScan total p44/42 MAPK (ERK 1/2) sandwich ELISA kit (Cell Signaling TECHNOLOGY) and the PathScan phospho-p44/42 MAPK (Thr202/Tyr204) sandwich ELISA kit (Cell Signaling TECHNOLOGY), respectively. To measure the amount of total and phospho-MEK1 in cell lysates of astrocytes, ELISA was performed according to the manufacturer's protocol using the PathScan total MEK1 sandwich ELISA kit (Cell Signaling TECHNOLOGY) and the PathScan phospho-MEK1 (Ser217/221) sandwich ELISA kit (Cell Signaling TECHNOLOGY), respectively. […] The optical density was determined at 450 nm using a microplate reader.
1. […] Determine the optical density at 450 nm using a microplate reader.
Astrocytes were treated with 175 μM of H2O2 for 40 min following preincubation with TTF for 2 h. The levels of phosphorylated and total SAPK/JNK (FIG. 3A), MEK1 (FIG. 3B) and ERK 1/2 (FIG. 3C) were measured by ELISA. […]

A further assay relates to SAPK/JNK. Put plainly: Aβ25-35-induced SAPK/JNK phosphorylation in N2a cells (ELISA). It is filed as cell-based. Conditions: concomitant treatment 30-40 min. As for the experimental part: 7. Measure the amount of total and phosphorylated SAPK/JNK in cell lysates) of N2a cells, by ELISA using the PathScan total SAPK/JNK sandwich ELISA kit (Cell Signaling TECHNOLOGY) and the PathScan phosoho-SAPK/JNK (Thr183/Tyr185) sandwich ELISA kit (Cell Signaling TECHNOLOGY), respectively, according to the manufacturer's instructions. 8. Determine the optical density at 450 nm using a microplate reader.
N2a cells were treated concomitantly with Aβ25-35 and TIF for 40 min. Cells were extracted and the levels of phosphorylated or total SAPK/JNK were determined by specific ELISA kits. The results are the mean±SEM of two different experiments (n=4) for phosphorylated SAPK/JNK and three different experiments (n=6) for total SAPK/JNK.
N2a cells were treated concomitantly with Aβ25-35 and achillolide A for 40 min. Cells were extracted and the levels of phosphorylated or total SAPK/JNK were determined by specific ELISA kits. The results are the mean±SEM of two different experiments (n=4) for phosphorylated SAPK/JNK and three different experiments (n=6) for total SAPK/JNK.
N2a cells were treated concomitantly with Aβ25-35 and memantine for 30 min. Cells were extracted and the levels of phosphorylated SAPK/JNK were determined by a specific ELISA kit. The results are the mean±SEM of one experiment (n=2).

The subject of another assay is ERK1/2. Put plainly: Aβ25-35-induced ERK1/2 phosphorylation in N2a cells (ELISA). It is filed as cell-based. Conditions: concomitant treatment 30-40 min. The procedure:
7. Measure the amount of total and phosphorylated ERK 1/2 in cell lysates of N2a cells, by ELISA using the PathScan total p44/42 MAPK (ERK 1/2) sandwich ELISA kit (Cell Signaling TECHNOLOGY) or the PathScan phosoho-p44/42 MAPK (Thr202/Tyr204) sandwich ELISA kit (Cell Signaling TECHNOLOGY), respectively. 8. Determine the optical density at 450 nm using a microplate reader.
N2a cells were treated concomitantly with Aβ25-35 and TTF for 30 min. Cells were extracted and the levels of phosphorylated or total ERK1/2 were determined by specific ELISA kits. The results are shown in FIG. 14 and are the mean±SEM of two different experiments (n=4).
N2a cells were treated concomitantly with Aβ25-35 and achillolide A for 40 min. Cells were extracted and the levels of phosphorylated or total ERK 1/2 were determined by specific ELISA kits. The results are the mean±SEM of two different experiments (n=4).
N2a cells were treated concomitantly with Aβ25-35 and memantine for 30 min. Cells were extracted and the levels of phosphorylated ERK1/2 were determined by a specific ELISA kit. The results are the mean±SEM of one experiment (n=2).

On to `CC12CC3CC(C)(C1)CC(N)(C3)C2` [memantine, reference compound], for which the “effect on H2O2-induced phosphorylation of ERK1/2” value in the assay on ERK 1/2 is recorded as “inhibitory effect”. Further, the “effect on Aβ25-35-induced phosphorylation of SAPK/JNK” value (from here on “effect … of SAPK/JNK”) with SAPK/JNK is “down-regulates”. Besides, the “effect on Aβ25-35-induced phosphorylation of ERK1/2” value with ERK1/2 is reported as “does not affect”.

On to `C=C1CCC2=C(CO)C(=O)O[C@H]2/C=C(\C)[C@H](OC(C)=O)CC1=O` [achillolide A], for which the “effect on H2O2-induced phosphorylation of ERK1/2” value in the assay with ERK 1/2 was “inhibitory effect”. The “effect … of SAPK/JNK” value with SAPK/JNK was “significantly decreased”. Further, the “effect on Aβ25-35-induced phosphorylation of ERK1/2” value in the assay with ERK1/2 was “significantly decreased”.

For the compound `COc1cc(-c2oc3cc(OC)c(OC)c(O)c3c(=O)c2O)ccc1O` [TTF, 3,5,4′-trihydroxy-6,7,3′-trimethoxyflavone], the “inhibition of H2O2-induced phosphorylation of ERK 1/2” value in the assay on ERK 1/2 (astrocytes pretreated 2 h, total ERK 1/2 not affected) was 30%. For the same compound, in the assay with SAPK/JNK, the “effect … of SAPK/JNK” value is given as “significantly inhibited”. Further, the “effect on Aβ25-35-induced phosphorylation of ERK1/2” value with ERK1/2 was “significantly inhibited”.
